Measurements published in PubChem BioAssay (NCI).
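Growth conditions: 96-well plates. Treatment: test compound, 48 hours, 5 concentrations. Analysis: linear interpolation between bracketing concentrations; unreached endpoints set to highest concentration. GI50: concentration for 50% inhibition of growth. At the TGI there is no net growth.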

Columns and labels:
Assay in all cases: growth of human tumour cells (NCI), 48 h
NCI-H23 lung = system: NCI-H23 lung
NCI-H460 lung = system: NCI-H460 lung
NCI-H522 lung = system: NCI-H522 lung
NCI/ADR-RES ovarian = system: NCI/ADR-RES ovarian
OVCAR-3 ovarian = system: OVCAR-3 ovarian
OVCAR-4 ovarian = system: OVCAR-4 ovarian
OVCAR-5 ovarian = system: OVCAR-5 ovarian
OVCAR-8 ovarian = system: OVCAR-8 ovarian
PC-3 prostate = system: PC-3 prostate
RPMI-8226 leukemia = system: RPMI-8226 leukemia
RXF 393 renal = system: RXF 393 renal
SF-268 CNS = system: SF-268 CNS
SF-295 CNS = system: SF-295 CNS
SF-539 CNS = system: SF-539 CNS
SK-MEL-2 melanoma = system: SK-MEL-2 melanoma
SK-MEL-28 melanoma = system: SK-MEL-28 melanoma
SK-MEL-5 melanoma = system: SK-MEL-5 melanoma
SK-OV-3 ovarian = system: SK-OV-3 ovarian
SN12C renal = system: SN12C renal
SNB-19 CNS = system: SNB-19 CNS
SNB-75 CNS = system: SNB-75 CNS
SR leukemia = system: SR leukemia
SW-620 colon = system: SW-620 colon
T-47D breast = system: T-47D breast
TK-10 renal = system: TK-10 renal
U251 CNS = system: U251 CNS
UACC-257 melanoma = system: UACC-257 melanoma
UACC-62 melanoma = system: UACC-62 melanoma
UO-31 renal = system: UO-31 renal

In the case of `COc1cc(-c2n/c(=C\c3c(O)[nH]c4ccccc34)cc3c2=Nc2ccccc2-3)ccc1F`, the TGI (NCI-H23 lung) is reported as 17.6 µM, the GI50 (NCI-H460 lung) is reported as 4.37 µM and the TGI (NCI-H460 lung) is reported as 58.2 µM. It also gave a GI50 (NCI-H522 lung) of 8.79 µM, a TGI (NCI-H522 lung) of 51.6 µM and a GI50 (NCI/ADR-RES ovarian) of 5.78 µM. The TGI (NCI/ADR-RES ovarian) was 43 µM, the GI50 (OVCAR-3 ovarian) was 4.08 µM and the TGI (OVCAR-3 ovarian) was 14.5 µM. It also gave a GI50 (OVCAR-4 ovarian) of 2.32 µM, a TGI (OVCAR-4 ovarian) of 6.4 µM and a GI50 (OVCAR-5 ovarian) of 22.2 µM. For the same molecule, the TGI (OVCAR-5 ovarian) was 90.8 µM, the GI50 (OVCAR-8 ovarian) was 8.4 µM and the TGI (OVCAR-8 ovarian) was 31.5 µM. It also gave a GI50 (PC-3 prostate) of 10.2 µM, a TGI (PC-3 prostate) of 48.8 µM and a GI50 (RPMI-8226 leukemia) of 17.5 µM. For the same molecule, the TGI (RPMI-8226 leukemia) was > 100 µM, the GI50 (RXF 393 renal) was 3.61 µM and the TGI (RXF 393 renal) was 22.2 µM. It also gave a GI50 (SF-268 CNS) of 10.6 µM, a TGI (SF-268 CNS) of 44.2 µM and a GI50 (SF-295 CNS) of 24.4 µM. The TGI (SF-295 CNS) was > 100 µM, the GI50 (SF-539 CNS) was 11.7 µM and the TGI (SF-539 CNS) was 33.2 µM. For the same molecule, the GI50 (SK-MEL-2 melanoma) was 21.7 µM, the TGI (SK-MEL-2 melanoma) was 62.2 µM and the GI50 (SK-MEL-28 melanoma) was 6.2 µM. For the same molecule, the TGI (SK-MEL-28 melanoma) was 22.6 µM, the GI50 (SK-MEL-5 melanoma) was 4.45 µM and the TGI (SK-MEL-5 melanoma) was 24.1 µM. The GI50 (SK-OV-3 ovarian) was 17.1 µM, the TGI (SK-OV-3 ovarian) was 43.5 µM and the GI50 (SN12C renal) was 10.7 µM. The TGI (SN12C renal) was 34 µM, the GI50 (SNB-19 CNS) was 4.94 µM and the TGI (SNB-19 CNS) was 24.3 µM. For the same molecule, the GI50 (SNB-75 CNS) was 16.2 µM, the TGI (SNB-75 CNS) was 63.6 µM and the GI50 (SR leukemia) was 2.05 µM. The TGI (SR leukemia) was 20.2 µM, the GI50 (SW-620 colon) was 4.15 µM and the TGI (SW-620 colon) was 86.7 µM. The GI50 (T-47D breast) was 6.87 µM, the TGI (T-47D breast) was 82 µM and the GI50 (TK-10 renal) was 3.89 µM. The TGI (TK-10 renal) was 13 µM, the GI50 (U251 CNS) was 2.05 µM and the TGI (U251 CNS) was 4.19 µM. For the same molecule, the GI50 (UACC-257 melanoma) was 15 µM, the TGI (UACC-257 melanoma) was 40 µM and the GI50 (UACC-62 melanoma) was 5.98 µM. The TGI (UACC-62 melanoma) was 21.7 µM, the GI50 (UO-31 renal) was 25.6 µM and the TGI (UO-31 renal) was > 100 µM.
